# Data reported in US6391885B1, “Method of treating a patient having precancerous lesions with phenyl cycloamino pyrimidinone derivatives” (Cell Pathways, Inc., priority 1995, dated 2002).
row,SMILES,melting point [°C]
1,"CCCOc1ccccc1-c1nc2nnc(SC)nc2c(=O)[nH]1 [Example 75, 5,6-Dihydro-3-methylthio-5-oxo-7-(2-propoxyphenyl)pyrimido[5,4-e][1,2,4]triazine]",195 to 197
2,"CCCOc1ccccc1-c1nc2nc(SC)nnc2c(=O)[nH]1 [Example 79, 3-Methylthio-8-oxo-6-(2-propoxyphenyl)-7,8-dihydropyrimido[4,5-e][1,2,4]triazine]",247 to 249

# More lines, now with the values ahead:
row,melting point [°C],SMILES
1,178 to 180,"CCCc1ccnc2c(=O)[nH]c(-c3cc(S(=O)(=O)N4CCNCC4)ccc3OCC)nc12 [Example 3, 2-[2-Ethoxy-5-(1-piperazinylsulphonyl)phenyl]-8-n-propylpyrido[3,2-d]pyrimidin-4(3H)-one]"
2,204 to 205,"CCCc1ccnc2c(=O)[nH]c(-c3cc(S(=O)(=O)N4CCC(C(=O)OCC)CC4)ccc3OCC)nc12 [Example 4, 2-[2-Ethoxy-5-(4-ethoxycarbonylpiperidinosulphonyl)phenyl]-8-n-propylpyrido[3,2-d]pyrimidin-4(3H)-one]"
3,216 to 219,"CCCc1ccnc2c(=O)[nH]c(-c3cc(S(=O)(=O)NC)ccc3OCC)nc12 [Example 6, 2-[2-Ethoxy-5-(methylsulphamoyl)phenyl]-8-n-propylpyrido[3,2-d]pyrimidin-4(3H)-one]"
